Measured values published in US10238641B2, “Materials and methods for diagnosis, prevention and/or treatment of stress disorders and conditions associated with A-beta peptide aggregation” (The United States of America as represented by the …, priority 2008, dated 2019).

Test system: nAChRs
Format: cell-based, rat

`CN1CCCC1c1cccnc1` (stereo not shown) [nicotine, reference compound] was tested, and the “reversal by α-Bgt of the beneficial actions against Aβ toxicity” value was “able to reverse the beneficial actions of nicotine”.
